The values below come from ChEMBL document CHEMBL5465560, “Selectivity Literature for EUbOPEN Chemogenomic Library” (2024).

In assay [1] the target is T1, Phosphatidylinositol 3-kinase C2 domain-containing subunit gamma (Homo sapiens) (UniProt O75747).
T1 sequence (whole entry): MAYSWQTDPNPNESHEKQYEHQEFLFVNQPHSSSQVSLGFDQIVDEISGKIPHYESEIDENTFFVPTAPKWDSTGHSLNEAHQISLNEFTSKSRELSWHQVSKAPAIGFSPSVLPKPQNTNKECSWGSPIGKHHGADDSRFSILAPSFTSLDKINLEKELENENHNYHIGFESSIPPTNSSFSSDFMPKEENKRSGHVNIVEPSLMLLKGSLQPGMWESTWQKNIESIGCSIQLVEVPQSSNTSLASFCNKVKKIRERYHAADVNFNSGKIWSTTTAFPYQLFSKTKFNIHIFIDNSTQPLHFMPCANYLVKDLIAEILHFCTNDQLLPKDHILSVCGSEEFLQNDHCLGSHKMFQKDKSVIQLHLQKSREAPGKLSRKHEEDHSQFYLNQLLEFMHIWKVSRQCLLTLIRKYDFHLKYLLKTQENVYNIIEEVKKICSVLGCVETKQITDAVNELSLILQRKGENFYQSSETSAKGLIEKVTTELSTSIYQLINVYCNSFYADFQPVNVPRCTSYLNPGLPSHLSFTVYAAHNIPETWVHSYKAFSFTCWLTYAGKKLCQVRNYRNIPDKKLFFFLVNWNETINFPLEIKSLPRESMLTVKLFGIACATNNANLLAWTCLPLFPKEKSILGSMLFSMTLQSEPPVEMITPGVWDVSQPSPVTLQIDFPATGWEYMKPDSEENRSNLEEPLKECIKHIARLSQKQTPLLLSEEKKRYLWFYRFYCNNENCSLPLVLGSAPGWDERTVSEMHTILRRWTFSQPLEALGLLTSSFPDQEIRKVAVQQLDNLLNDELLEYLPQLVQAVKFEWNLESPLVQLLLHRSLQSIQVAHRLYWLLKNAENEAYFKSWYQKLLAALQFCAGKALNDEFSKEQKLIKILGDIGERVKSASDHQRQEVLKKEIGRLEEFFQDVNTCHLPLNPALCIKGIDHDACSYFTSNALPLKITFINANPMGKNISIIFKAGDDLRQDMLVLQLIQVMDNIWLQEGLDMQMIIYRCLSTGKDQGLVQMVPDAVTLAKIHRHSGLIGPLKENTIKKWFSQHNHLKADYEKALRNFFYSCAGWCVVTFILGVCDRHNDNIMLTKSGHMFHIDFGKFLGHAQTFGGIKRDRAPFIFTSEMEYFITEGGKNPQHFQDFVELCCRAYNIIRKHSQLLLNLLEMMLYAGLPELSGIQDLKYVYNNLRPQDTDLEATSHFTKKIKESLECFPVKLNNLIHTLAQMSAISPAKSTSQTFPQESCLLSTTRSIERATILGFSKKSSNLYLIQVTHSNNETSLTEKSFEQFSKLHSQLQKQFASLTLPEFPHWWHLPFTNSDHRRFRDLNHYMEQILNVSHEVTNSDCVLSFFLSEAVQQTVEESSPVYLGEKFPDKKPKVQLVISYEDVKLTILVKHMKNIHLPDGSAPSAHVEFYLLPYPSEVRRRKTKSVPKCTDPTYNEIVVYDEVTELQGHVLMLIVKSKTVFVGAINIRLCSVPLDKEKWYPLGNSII
Briefly: Selectivity interaction (Adapta Assay) EUB0001632a PIK3C2G. Particulars: at 10 µM.

The target of assay [2] is T2, Tyrosine-protein kinase Tec (Homo sapiens) (UniProt P42680).
T2 sequence (whole entry): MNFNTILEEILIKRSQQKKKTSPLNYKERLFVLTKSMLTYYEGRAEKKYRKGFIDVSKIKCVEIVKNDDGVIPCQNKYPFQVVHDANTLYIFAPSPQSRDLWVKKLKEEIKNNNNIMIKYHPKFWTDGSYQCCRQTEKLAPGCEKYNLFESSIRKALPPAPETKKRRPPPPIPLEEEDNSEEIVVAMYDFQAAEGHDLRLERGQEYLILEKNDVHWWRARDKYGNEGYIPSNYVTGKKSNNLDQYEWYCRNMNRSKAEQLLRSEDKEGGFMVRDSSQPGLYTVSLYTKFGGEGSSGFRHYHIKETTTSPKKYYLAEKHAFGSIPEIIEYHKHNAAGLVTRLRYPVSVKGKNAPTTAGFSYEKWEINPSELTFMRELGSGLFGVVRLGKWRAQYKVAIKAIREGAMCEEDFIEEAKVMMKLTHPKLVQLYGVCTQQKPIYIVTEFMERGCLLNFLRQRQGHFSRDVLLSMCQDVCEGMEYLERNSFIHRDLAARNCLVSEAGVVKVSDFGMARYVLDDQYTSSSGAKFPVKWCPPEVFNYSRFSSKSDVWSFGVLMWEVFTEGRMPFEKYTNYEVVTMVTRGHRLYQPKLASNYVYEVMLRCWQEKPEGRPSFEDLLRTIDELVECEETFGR
Briefly: Selectivity interaction (LanthaScreen Eu Kinase Binding Assay) EUB0001632a TEC. The conditions noted are these: at 10 µM. A general note: In TR-FRET formats the signal depends on donor and acceptor labels being close together.

The target in assay [3] is Tyrosine-protein kinase Blk (Homo sapiens) (UniProt P51451). The conditions noted are these: at 10 µM.
Assay [4] addresses Homeodomain-interacting protein kinase 3 (Homo sapiens, UniProt Q9H422). The experiment in a line: Selectivity interaction (KinomeScan (DiscoverX)) EUB0000695a HIPK3. The conditions noted are these: at 100 nM.
For assay [5], the target named is Serine/threonine-protein kinase/endoribonuclease IRE1 (Homo sapiens) (UniProt O75460). The experiment in a line: Selectivity interaction (KinomeScan (DiscoverX)) EUB0000607a ERN1. The conditions noted are these: at 10 µM.
Assay [6] deals with Tyrosine-protein kinase Lck (Homo sapiens, UniProt P06239). The experiment in a line: Selectivity interaction (Kinase screening (Upstate/Millipore)) EUB0000604a LCK.
Assay [7] deals with Tyrosine-protein kinase Yes (Homo sapiens) (UniProt P07947). Briefly: Selectivity interaction (Kinase screening (Nanosyn)) EUB0000604a YES1.
The target in assay [8] is Serine/threonine-protein kinase PRP4 homolog (Homo sapiens) (UniProt Q13523). The experiment in a line: Selectivity interaction (ActivX KiNativ screen (kinase selectivity in THP-1 cell lysates)) EUB0000639a PRPF4. Type of assay: subcellular. Particulars: lysate, at 0.2 µM.
Assay [9] addresses Ribosomal protein S6 kinase alpha-1 (Homo sapiens, UniProt Q15418). Briefly: Selectivity interaction (ActivX KiNativ screen (kinase selectivity in THP-1 cell lysates)) EUB0000639a RPS6KA1. Type of assay: subcellular. The conditions noted are these: lysate, at 1 µM.
In assay [10] the target is STE20-like serine/threonine-protein kinase (Homo sapiens, UniProt Q9H2G2). Briefly: Selectivity interaction (ActivX KiNativ screen (kinase selectivity in THP-1 cell lysates)) EUB0000639a SLK. Type of assay: subcellular. The conditions noted are these: lysate.
Chain of STE20-like serine/threonine-protein kinase (Q9H2G2 whole entry, looked up): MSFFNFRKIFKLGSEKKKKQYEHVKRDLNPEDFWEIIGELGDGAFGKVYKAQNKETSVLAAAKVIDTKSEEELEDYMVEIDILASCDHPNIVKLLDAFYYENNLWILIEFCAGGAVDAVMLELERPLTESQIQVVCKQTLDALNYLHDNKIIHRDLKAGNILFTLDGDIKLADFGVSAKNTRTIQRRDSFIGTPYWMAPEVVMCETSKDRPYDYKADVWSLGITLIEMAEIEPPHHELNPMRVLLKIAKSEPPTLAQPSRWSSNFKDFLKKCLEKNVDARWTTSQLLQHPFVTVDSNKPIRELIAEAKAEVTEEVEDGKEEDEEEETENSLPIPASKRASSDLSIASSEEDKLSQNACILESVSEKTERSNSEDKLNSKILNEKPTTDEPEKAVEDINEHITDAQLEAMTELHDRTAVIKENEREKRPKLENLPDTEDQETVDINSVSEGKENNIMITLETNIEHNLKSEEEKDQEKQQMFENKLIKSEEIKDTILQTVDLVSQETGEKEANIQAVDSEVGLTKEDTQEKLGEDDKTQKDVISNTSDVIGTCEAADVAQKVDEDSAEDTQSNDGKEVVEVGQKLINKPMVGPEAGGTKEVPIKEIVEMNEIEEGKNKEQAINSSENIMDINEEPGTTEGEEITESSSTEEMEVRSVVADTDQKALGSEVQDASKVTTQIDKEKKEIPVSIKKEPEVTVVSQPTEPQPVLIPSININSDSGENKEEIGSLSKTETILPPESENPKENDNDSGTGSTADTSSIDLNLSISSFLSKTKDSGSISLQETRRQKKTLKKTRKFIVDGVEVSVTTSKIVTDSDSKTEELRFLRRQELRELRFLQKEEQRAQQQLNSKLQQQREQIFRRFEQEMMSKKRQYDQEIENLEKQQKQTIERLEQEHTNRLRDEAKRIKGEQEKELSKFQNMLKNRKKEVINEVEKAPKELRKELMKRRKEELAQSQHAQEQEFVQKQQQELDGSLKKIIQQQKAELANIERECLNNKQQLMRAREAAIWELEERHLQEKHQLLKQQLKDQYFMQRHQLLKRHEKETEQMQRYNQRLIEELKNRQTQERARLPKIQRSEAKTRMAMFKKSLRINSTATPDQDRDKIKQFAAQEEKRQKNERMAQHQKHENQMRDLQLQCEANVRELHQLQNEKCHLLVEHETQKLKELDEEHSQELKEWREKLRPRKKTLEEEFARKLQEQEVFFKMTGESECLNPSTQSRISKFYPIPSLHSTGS

Chain of Serine/threonine-protein kinase PRP4 homolog (Homo sapiens) (Q13523 whole entry): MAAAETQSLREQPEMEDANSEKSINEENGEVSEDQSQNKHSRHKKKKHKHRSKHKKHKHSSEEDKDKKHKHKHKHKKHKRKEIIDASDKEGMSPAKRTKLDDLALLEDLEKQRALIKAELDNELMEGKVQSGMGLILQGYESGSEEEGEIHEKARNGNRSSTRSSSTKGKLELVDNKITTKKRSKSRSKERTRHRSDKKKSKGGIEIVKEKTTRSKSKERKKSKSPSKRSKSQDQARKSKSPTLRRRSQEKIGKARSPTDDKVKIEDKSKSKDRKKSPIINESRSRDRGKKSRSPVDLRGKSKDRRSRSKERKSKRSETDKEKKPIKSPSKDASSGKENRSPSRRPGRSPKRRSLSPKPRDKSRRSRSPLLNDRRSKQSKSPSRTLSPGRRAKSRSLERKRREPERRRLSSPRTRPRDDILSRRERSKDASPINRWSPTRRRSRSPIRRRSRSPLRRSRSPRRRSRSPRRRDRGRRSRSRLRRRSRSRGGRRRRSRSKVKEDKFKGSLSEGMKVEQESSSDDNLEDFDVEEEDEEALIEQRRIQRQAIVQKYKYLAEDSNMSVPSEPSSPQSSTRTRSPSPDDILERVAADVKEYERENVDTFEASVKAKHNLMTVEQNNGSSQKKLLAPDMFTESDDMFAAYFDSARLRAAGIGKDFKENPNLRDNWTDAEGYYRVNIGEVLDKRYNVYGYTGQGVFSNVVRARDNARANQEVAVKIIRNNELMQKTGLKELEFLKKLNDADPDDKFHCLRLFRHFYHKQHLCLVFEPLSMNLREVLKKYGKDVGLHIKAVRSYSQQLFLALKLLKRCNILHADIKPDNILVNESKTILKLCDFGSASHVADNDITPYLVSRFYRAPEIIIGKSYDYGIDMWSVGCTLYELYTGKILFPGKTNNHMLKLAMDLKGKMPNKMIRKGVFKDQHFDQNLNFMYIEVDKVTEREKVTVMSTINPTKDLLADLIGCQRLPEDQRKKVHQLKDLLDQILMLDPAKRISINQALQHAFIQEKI
Chain of Ribosomal protein S6 kinase alpha-1 (Q15418 whole entry): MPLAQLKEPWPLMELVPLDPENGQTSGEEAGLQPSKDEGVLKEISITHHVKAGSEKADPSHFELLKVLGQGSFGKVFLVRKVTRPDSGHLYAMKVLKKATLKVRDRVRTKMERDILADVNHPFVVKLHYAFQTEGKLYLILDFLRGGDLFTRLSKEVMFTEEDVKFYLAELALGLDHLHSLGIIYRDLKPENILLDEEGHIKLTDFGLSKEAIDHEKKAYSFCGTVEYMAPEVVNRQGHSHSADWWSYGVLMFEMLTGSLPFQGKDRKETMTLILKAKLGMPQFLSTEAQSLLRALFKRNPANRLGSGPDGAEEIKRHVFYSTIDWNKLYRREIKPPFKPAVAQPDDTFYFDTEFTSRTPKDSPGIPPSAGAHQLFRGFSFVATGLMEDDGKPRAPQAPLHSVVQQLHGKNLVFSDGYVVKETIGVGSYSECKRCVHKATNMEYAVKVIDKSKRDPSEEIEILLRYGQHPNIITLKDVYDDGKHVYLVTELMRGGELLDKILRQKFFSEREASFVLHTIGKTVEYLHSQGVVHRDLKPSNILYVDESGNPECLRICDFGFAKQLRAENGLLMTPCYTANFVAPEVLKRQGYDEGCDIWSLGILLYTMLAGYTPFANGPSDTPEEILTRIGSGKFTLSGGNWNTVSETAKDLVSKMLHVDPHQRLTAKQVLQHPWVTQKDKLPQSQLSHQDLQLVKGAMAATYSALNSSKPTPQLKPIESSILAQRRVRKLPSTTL
Chain of Tyrosine-protein kinase Lck (P06239 2-509 limits assumed): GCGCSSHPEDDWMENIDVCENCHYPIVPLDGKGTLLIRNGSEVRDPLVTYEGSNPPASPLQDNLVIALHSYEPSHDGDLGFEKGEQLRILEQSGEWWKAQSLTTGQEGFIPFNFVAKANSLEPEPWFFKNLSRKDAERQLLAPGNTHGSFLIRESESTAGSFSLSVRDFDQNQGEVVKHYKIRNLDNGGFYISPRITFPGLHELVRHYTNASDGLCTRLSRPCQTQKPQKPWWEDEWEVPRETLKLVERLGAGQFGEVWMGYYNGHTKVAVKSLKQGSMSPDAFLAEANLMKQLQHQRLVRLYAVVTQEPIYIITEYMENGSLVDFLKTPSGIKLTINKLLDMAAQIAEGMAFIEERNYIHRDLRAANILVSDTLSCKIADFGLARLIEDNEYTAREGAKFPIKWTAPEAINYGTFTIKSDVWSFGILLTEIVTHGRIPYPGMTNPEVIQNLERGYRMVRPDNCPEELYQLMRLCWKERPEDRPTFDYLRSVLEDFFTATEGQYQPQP
Chain of Tyrosine-protein kinase Yes (Homo sapiens) (P07947 2-543 limits assumed): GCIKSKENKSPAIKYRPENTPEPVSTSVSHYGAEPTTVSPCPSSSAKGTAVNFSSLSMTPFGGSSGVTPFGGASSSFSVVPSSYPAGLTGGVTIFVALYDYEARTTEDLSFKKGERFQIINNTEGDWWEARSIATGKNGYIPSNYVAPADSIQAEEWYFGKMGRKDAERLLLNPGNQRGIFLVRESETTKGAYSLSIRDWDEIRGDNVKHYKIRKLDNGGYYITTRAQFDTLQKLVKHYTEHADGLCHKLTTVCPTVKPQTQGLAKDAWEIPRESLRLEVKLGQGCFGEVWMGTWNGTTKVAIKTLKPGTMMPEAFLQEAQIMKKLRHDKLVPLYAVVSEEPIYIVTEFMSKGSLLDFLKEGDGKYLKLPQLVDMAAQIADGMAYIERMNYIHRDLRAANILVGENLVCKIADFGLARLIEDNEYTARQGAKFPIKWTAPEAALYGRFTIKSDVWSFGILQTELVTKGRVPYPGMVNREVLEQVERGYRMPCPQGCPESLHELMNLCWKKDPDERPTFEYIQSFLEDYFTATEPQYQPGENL
Chain of Serine/threonine-protein kinase/endoribonuclease IRE1 (Homo sapiens) (O75460 19-977 limits assumed): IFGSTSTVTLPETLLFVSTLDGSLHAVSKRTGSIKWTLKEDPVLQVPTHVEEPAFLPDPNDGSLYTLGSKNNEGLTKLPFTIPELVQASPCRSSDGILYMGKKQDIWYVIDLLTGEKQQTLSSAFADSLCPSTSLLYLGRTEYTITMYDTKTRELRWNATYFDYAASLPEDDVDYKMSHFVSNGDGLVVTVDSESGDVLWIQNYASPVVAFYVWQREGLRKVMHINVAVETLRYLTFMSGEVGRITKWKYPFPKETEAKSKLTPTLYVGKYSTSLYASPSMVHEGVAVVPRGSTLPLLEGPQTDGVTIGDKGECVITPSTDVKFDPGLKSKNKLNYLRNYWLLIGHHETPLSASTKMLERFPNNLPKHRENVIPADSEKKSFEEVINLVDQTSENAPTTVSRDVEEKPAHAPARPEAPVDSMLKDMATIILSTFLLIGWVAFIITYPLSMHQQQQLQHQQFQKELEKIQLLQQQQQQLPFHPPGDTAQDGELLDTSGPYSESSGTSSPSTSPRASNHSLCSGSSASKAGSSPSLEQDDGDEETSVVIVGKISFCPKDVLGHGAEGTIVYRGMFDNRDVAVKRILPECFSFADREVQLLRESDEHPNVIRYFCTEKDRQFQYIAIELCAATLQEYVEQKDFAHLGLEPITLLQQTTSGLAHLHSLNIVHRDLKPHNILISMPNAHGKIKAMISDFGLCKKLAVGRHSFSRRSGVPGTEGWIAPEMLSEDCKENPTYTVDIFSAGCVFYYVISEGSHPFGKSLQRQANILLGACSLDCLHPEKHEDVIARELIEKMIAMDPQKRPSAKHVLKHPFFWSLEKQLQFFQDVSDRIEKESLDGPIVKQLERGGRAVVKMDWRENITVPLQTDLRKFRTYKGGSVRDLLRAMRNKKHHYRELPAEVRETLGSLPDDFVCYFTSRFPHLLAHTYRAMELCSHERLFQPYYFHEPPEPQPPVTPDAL

Consider `Cn1cc(-n2cnc3c(NCc4nc5cc(Cl)c(Cl)cc5[nH]4)nc(N4CCOCC4)nc32)cn1`, for which the % of inhibition in [1] is -0.366%; in [2], -15.6%.
In assay [3], `CCN(CC)CCCCNc1ncc2cc(-c3cc(OC)cc(OC)c3)c(NC(=O)NC(C)(C)C)nc2n1` had a % of control of 100%.
On to `Cc1cc(F)c(C(=O)Nc2cccc(-c3nncn3C(C)C)n2)cc1-n1cnc(C2CC2)c1`, for which the % of control in [4] stood at 100%.
The compound `CNC(=O)Nc1ccc(-c2nc(N3CC4CCC(C3)O4)c3cnn(C4CCC5(CC4)OCCO5)c3n2)cc1` showed a % of control in [5] of 93%.
Take `Cc1cnc(Nc2ccc(F)cc2Cl)nc1-c1c[nH]c(C(=O)N[C@H](CO)c2cccc(Cl)c2)c1`: the % of inhibition was determined as 3% in assay [6] and 5% in [7].
For `CC[C@@H]1[C@H](F)C(=O)N[C@@H]1COc1nccc2cc(C(N)=O)c(OC)cc12` [ZIMLOVISERTIB], the % of inhibition in assay [8] is 28.3%; in [9], 5.7%; in [10] (at 0.01 µM), 3.3%; in assay [10] (at 0.04 µM) it was -3.6%; in assay [10] (at 0.2 µM) it was -8.9%; in [10] (at 1 µM), -13.7%. In addition, the % of inhibition in assay [10] (at 5 µM) was -7.8%.
